From patent publication US10543183B2, “Treatment and diagnosis of melanoma” (The Rockefeller University, priority 2012, dated 2020)

What was measured:
[1] = test system: ApoE expression in human melanoma cells; assay: ApoE mRNA expression by qRT-PCR in melanoma cells; format: cell-based; conditions: MeWo cells; 500 nM, 1 μM, or 2 μM for 48 hours
Procedure: Total RNA was extracted from various cell lines using the miRvana kit (AM1560, Applied Biosystems, Austin, Tex.). The expression levels of mature miRNAs were quantified using the Taqman miRNA expression assay (4427975-0002228, Applied Biosystems). RNU44 was used as an endogenous control for normalization. For mRNA expression analyses, 600 ng of total RNA was reverse transcribed using the cDNA First-Strand Synthesis Kit (18080-051, Invitrogen), and roughly 200 ng of the resulting cDNA was then mixed with SYBR green PCR Master Mix (4309155, Applied Biosystems) and the appropriate primers. Each reaction was performed in quadruplicate, and mRNA expression was quantified by performing real-time PCR amplification using an ABI Prism 7900HT Real-Time PCR System (Applied Biosystems). GAPDH was used as an endogenous control for normalization. The following primers were used: […]
RNA was extracted from whole cell lysates using the Total RNA Purification Kit (17200, Norgen, Thorold, Canada). 600 ng of total RNA was then reverse transcribed into cDNA using the cDNA First-Strand Synthesis Kit (18080-051, Invitrogen), and quantitative real-time PCR amplification was performed as previously described (Pencheva et al., 2012) using an ABI Prism 7900HT Real-Time PCR System (Applied Biosystems, Austin, Tex.). Each PCR reaction was carried out in quadruplicates. Gene expression was normalized to GAPDH, which was used as an endogenous control.
For every sample, 600 ng of RNA was reverse transcribed into cDNA using the cDNA First-Strand Synthesis kit (Invitrogen). Approximately 200 ng of cDNA was mixed with SYBR® green PCR Master Mix and the corresponding forward and reverse primers specific for detection of human ApoE. Each reaction was carried out in quadruplicates, and ApoE mRNA expression levels were measured by quantitative real-time PCR amplification using an ABI Prism 7900HT Real-Time PCR System (Applied Biosystems). The relative ApoE expression was determined using the ΔΔCt method. GAPDH was used as an endogenous control for normalization purposes.

[2] = test system: human melanoma cells (MeWo, MeWo-LM2, HT-144, SK-Mel-2, SK-Mel-334.2); assay: trans-well matrigel cell invasion assay, melanoma cells; format: cell-based; conditions: MeWo, HT-144, SK-Mel-2, SK-Mel-334.2; 1 μM for 72 hours
Procedure: Cancer cells were serum-starved in 0.2% FBS DMEM-based media for 12 hours. Trans-well invasion chambers (354480, BD Biosciences, Bedford, Mass.) were pre-equilibrated prior to beginning the assay by adding 0.5 mL of starvation media to the top and bottom chambers. After 30 minutes, the media in the top chamber was removed, and 0.5 mL of media containing 1×10^5 cancer cells was added into each matrigel-coated trans-well insert and incubated at 37° C. for 24 hours. For neutralization antibody and/or recombinant protein experiments, antibody/recombinant protein was added to each well at the start of the assay at the following concentrations as indicated in the figures: 5-40 μg/mL anti-ApoE 1D7 (Heart Institute, University of Ottawa), 5-40 μg/mL anti-IgG (AB-108-C, R&D Systems, Minneapolis, Minn.), 100 μM recombinant human ApoE3 (4696, BioVision, Mountain View, Calif.), and 100 μM BSA (A2153, Sigma-Aldrich). Upon completion of the assay, matrigel-coated inserts were washed with PBS, the cells at the top side of each insert were scraped off, and the inserts were fixed in 4% paraformaldehyde for 15 minutes. The inserts were then cut out and mounted onto slides using VectaShield mounting medium containing DAPI (H-1000, Vector Laboratories, Burlingame, Calif.). The basal side of each insert was imaged using an inverted fluorescence microscope (Zeiss Axiovert 40 CFL) at 5× magnification, taking three representative images for each insert. The number of invaded cells was quantified using ImageJ (NIH).
The cell invasion assay was performed as previously described in detail (Pencheva et al., 2012) using a trans-well matrigel invasion chamber system (354480, BD Biosciences). In brief, various melanoma cells were cultured in the presence of DMSO, GW3965, T0901317, or Bexarotene at 1 μM for 56 hours, after which melanoma cells were switched to starvation media (0.2% FBS) for 16 hours in the presence of each drug. Following starvation, cells were seeded into matrigel-coated trans-well inserts, and the invasion assay was allowed to proceed for 24 hours at 37° C. For ApoE antibody neutralization experiments, 40 μg/mL 1D7 anti-ApoE blocking antibody (Heart Institute, University of Ottawa, Ottawa, Canada) or 40 μg/mL anti-IgG control antibody (AB-108-C, R&D Systems, Minneapolis, Minn.) was added to each trans-well insert at the start of the assay.
The cells were then serum starved for 16 hours in 0.2% FBS media in the presence of each corresponding drug or DMSO. Following serum starvation, the cells were subjected to the trans-well invasion assay using a matrigel invasion chamber system (354480, BD Biosciences). Invasion chambers were pre-equilibrated prior to the assay by adding 0.5 mL of starvation media to the top and bottom wells. Meanwhile, cancer cells were trypsinized and viable cells were counted using trypan blue. Cancer cells were then resuspended at a concentration of 2×10^5 cells/1 mL starvation media, and 0.5 mL of cell suspension, containing 1×10^5 cells, was seeded into each trans-well. The invasion assay was allowed to proceed for 24 hours at 37° C. […] Following fixation, the inserts were washed in PBS, cut out, and mounted onto slides using VectaShield mounting medium containing DAPI nuclear stain (H-1000, Vector Laboratories). The basal side of each insert was imaged using an inverted fluorescence microscope (Zeiss Axiovert 40 CFL) at 5× magnification, and the number of DAPI-positive cells was quantified using ImageJ.

[3] = test system: endothelial cells (HUVEC) recruited by human melanoma cells; assay: trans-well endothelial recruitment assay; format: cell-based; conditions: MeWo, HT-144, SK-Mel-2, SK-Mel-334.2; 1 μM for 72 hours
Procedure: 5×10^4 cancer cells were seeded into 24-well plates approximately 24 hours prior to the start of the assay. HUVEC's were grown to 80% confluency and serum starved in EGM-2 media supplemented with 0.2% FBS for 16 hours. HUVEC's were then pulsed with Cell Tracker Red CMTPX dye (C34552, Invitrogen) for 45 minutes. Meanwhile, cancer cells were washed with PBS, 0.5 mL of 0.2% FBS EGM-2 media was added to each well, and a 3.0 μm HTS Fluoroblock insert (351151, BD Falcon, San Jose, Calif.) was placed into each well. 1×10^5 HUVEC's, resuspended in 0.5 mL of starvation media, were seeded into each trans-well insert, and the recruitment assay was allowed to proceed for 16-18 hours at 37° C. For neutralization antibody and/or recombinant protein experiments, antibody/protein was then added to each well at the appropriate concentration as indicated in the figures: 40 μg/mL anti-ApoE 1D7, 40 μg/mL anti-IgG, 100 μM rhApoE3, and 100 μM BSA. Upon completion of the assay, the inserts were processed and analyzed as described for the matrigel invasion assay above (See Matrigel Invasion Assay).
The endothelial recruitment assay was carried out as previously described (Pencheva et al., 2012; Png et al., 2012). Melanoma cells were treated with DMSO, GW3965, T0901317, or Bexarotene at 1 μM for 56 hours, after which 5×10^4 cells were seeded in a 24-well plate in the presence of each drug and allowed to attach for 16 hours prior to starting the assay. HUVEC cells were serum-starved overnight in EGM-2 media containing 0.2% FBS. The following day, 1×10^5 HUVEC cells were seeded into a 3.0 μm HTS Fluoroblock trans-well migration insert (351151, BD Falcon, San Jose, Calif.) fitted into each well containing cancer cells at the bottom. The HUVEC cells were allowed to migrate towards the cancer cells for 20 hours at 37° C., after which the inserts were processed as previously described (Pencheva et al., 2012). For ApoE antibody neutralization experiments, 40 μg/mL 1D7 anti-ApoE blocking antibody (Heart Institute, University of Ottawa, Ottawa, Canada) or 40 μg/mL anti-IgG control antibody (AB-108-C, R&D Systems, Minneapolis, Minn.) was added to each trans-well insert at the start of the assay.
Subsequently, 5×10^4 cancer cells were seeded into 24-well plates in the presence of each drug or DMSO and allowed to attach for 16 hours prior to starting the assay. Human umbilical vein endothelial cells (HUVEC cells) were serum-starved in 0.2% FBS-containing media overnight. The following day, 1×10^5 HUVEC cells were seeded into a 3.0 μm HTS Fluoroblock insert (351151, BD Falcon) fitted into each well containing the cancer cells at the bottom. The HUVEC cells were allowed to migrate towards the cancer cells for 20 hours, after which the inserts were washed in PBS, fixed in 4% PFA, labeled with DAPI, and mounted on slides. The basal side of each insert was imaged using an inverted fluorescence microscope (Zeiss Axiovert 40 CFL) at 5× magnification, and the number of DAPI-positive cells was quantified using ImageJ.

melanoma cells = assay: cell proliferation and viability assay; format: cell-based, human; conditions: MeWo, HT-144, SK-Mel-334.2; 1 μM, 5 days
Procedure: To determine the effects of miR-199a or miR-1908 over-expression and combinatorial LNA-induced miRNA inhibition on cell proliferation, 2.5×10^4 cells were seeded in triplicate in 6-well plates, and viable cells were counted after 5 days. […] Viable cells were counted after 8, 24, 48, 72, and 120 hours.
After 5 days, the number of viable and dead cells was counted using the trypan blue dye (72-57-1, Sigma-Aldrich), which selectively labels dead cells.

[4] = test system: B16F10 mouse melanoma cells; assay: subcutaneous B16F10 tumor growth in mice; format: in vivo; conditions: 50 mg/kg, i.p., daily
Procedure: First, the cells were treated with 500 μg/mL DTIC for one week. Following this initial DTIC treatment, the remaining (˜10%) viable cells were allowed to recover for one week, after which 750 μg/mL of DTIC was added to the cell media for 5 days. Subsequent to this high-dose treatment, the cells were allowed to recover in the presence of low-dose DTIC (100 μg/mL) for one week. The cells were then continuously cultured in cell media containing 200 μg/mL DTIC for at least one month prior to grafting the cells into mice. DTIC was added to fresh cancer cell media every 3 days. […] DTIC was dissolved in the presence of citric acid (1:1 by weight) in water and administered daily by intraperitoneal injection.

[5] = test system: B16F10 mouse melanoma cells; assay: subcutaneous B16F10 tumor growth in mice; format: in vivo; conditions: 50 mg/kg, i.p., daily; remark: listed apart in the source

Fc1ccc(-c2c3cccc(C(F)(F)F)c3nn2Cc2ccc(F)cc2Cl)cc1 [LXR-623 3]
ApoE expression induction [1]: varied degrees of ApoE expression induction

C=C(c1ccc(C(=O)O)cc1)c1cc2c(cc1C)C(C)(C)CCC2(C)C [bexarotene, reference compound]
ability of melanoma cells to invade through matrigel [2]: suppressed invasion only in half of the melanoma lines tested
ability of melanoma cells to recruit endothelial cells [3]: did not significantly affect
cell proliferation or cell viability rates (melanoma cells): did not affect

CN(C)/N=N/c1[nH]cnc1C(N)=O [dacarbazine, reference compound]
tumor growth by B16F10 DTIC-resistant cells [4]: did not affect
growth of DTIC-sensitive parental B16F10 line [5]: significantly suppressed
